# Assay results taken from patent US20200113902A1, “COMPOSITIONS AND METHODS FOR TREATING CANCERS WITH COVALENT INHIBITORS OF CYCLIN-DEPENDENT KINASE 7 (CDK7)” (Syros Pharmaceuticals, Inc., priority 2017, published 2020).
# Legend:
# [1] = tested on: Rad51, CHEK1 and CHEK2 mRNA in MDA-MB-468, MDA-MB-231, Ca1120 and MDA-MB-453; experiment: Quantitative PCR of DNA damage repair genes, breast cancer cell lines; format: cell-based; details: 50 nM, 6 hrs
# Protocol: Breast cancer cell lines MDA-MB-468, MDA-MB-231, Ca1120 and MDA-MB-453 were plated at 200,000 cells/well in a 6-well plate the day before treatment. The next day the cells were treated with vehicle, 50 nM Compound 1 or 50 nM Paclitaxel for 6 hrs, after which cells were harvested and total RNA collected using RNeasy mini kit (Qiagen). Total RNA (500 ng) was reverse transcribed using Quantitect Reverse Transcription kit (Qiagen). Quantitative PCR for each of Rad51, CHEK1 and CHEK2 was performed on QuantStudio 6 Flex (Applied Biosystems) using Power SYBR green PCR master mix (Thermo Fisher Scientific) and primers specific for each of those genes. The change in gene expression, relative to housekeeping gene RPL27, was quantified using DDCt method.
# [2] = tested on: Rad51, CHEK1 and CHEK2 RNA in THP1 cells; experiment: Microarray RNA levels of DNA damage repair genes, THP1; format: cell-based; details: THP1 AML cells; 100 nM, 6 hrs
# Protocol: THP1 is an AML cell line. THP1 cells (1×10^6/well) were plated in 6-well plates and treated with vehicle (DMSO), 100 nM Compound 1, 25 nM NVP2 (a CDK9 inhibitor), 250 nM JQ1 (a BRD4 inhibitor) or 200 nM Flavopiridol (a pan-CDK inhibitor) for 6 hrs, after which cells were harvested and total RNA (1,000 ng) isolated. RNA levels of the DNA damage repair genes Rad51, CHEK1 and CHEK2 were analyzed by microarray. Experiments were done in triplicates. We performed RMA normalization of the data using the “affy” package from Bioconductor. The command used is shown below and includes background correction, normalization and summarization:
# Next, we performed loess normalization using only spike-ins to enable comparison of expression values across multiple samples.
# leukemic cells = details: leukemic vs non-malignant cells; previously shown; cited from earlier work
# [3] = tested on: MCL1 protein in OCI-AML3 cells; experiment: Western blot, AML cell line OCI-AML3; format: cell-based; details: 50 nM
# Protocol: (§1) Cytotoxic cancer cell lines HCC70 and TOV21G, and cytostatic cancer cell lines T47D and COV318 were seeded in wells of a six-well dish at a density of 1×10^6 cells/well and allowed to adhere overnight. Cells were then treated with 50 nM of Compound 1 for 16 or 24 hours, or with DMSO (0 hours) representing a negative control. Cells were harvested and placed on ice, and resuspended in RIPA lysis buffer supplemented with protease and phosphatase inhibitors. Clarified lysates prepared with 4×LSD running buffer and boiled at 95° C. for 5 minutes. Equivalent amounts of sample (10 μg total protein) were run on a 4-12% Bis-Tris gel and transferred to a PDVF membrane for Western blotting using standard Western blotting protocols. Membranes were blocked with Licor TBS blocking buffer then probed with antibodies for BCL-XL, BCL-2, MCL1, BID, and GAPDH visualized using and Odyssey imager (FIGS. 23A and 23D).
# (§2) We next explored the expression of MCL1, BCL-XL and BCL2 in four different AML cell lines. MV411, OCI-AML3 and KG1 cells were separately grown and prepared as described in Example 2 for Western blotting, using antibodies specific for BCL2 (FIG. 24A), BCL-XL, MCL-1 and tubulin as an internal control (FIG. 24B).
# [4] = tested on: MCL1 protein in MV411 cells; experiment: Western blot, AML cell line MV411; format: cell-based; details: 50 nM
# Protocol: as §1, §2
# HCC70 cells = experiment: Growth rate (GR) inhibition, Cell Titer Glo 2.0, HCC70; format: cell-based, human; details: concentrations greater than 100 nM, 72 hours
# Protocol: (§3) To determine the effect of Compound 1 on the growth of TNBC cancer cells, four different human TNBC cell lines were used—HCC70, MDA-MB-468, MDA-MB-453 and CAL120. Cells from each cell line were plated separately at 50,000 cells/mL (100 uL per well) in a black-walled 96 well plate and allowed to adhere overnight. In parallel, cells were plated in a separate day 0 plate to measure the number of cells present upon compound addition. The next day, Compound 1 was added to the wells with an HP 300e compound dispenser in a 10-point serial dilution and cells incubated for 72 hours. On the same day Cell Titer Glo 2.0 reagent was added to the day 0 plate, and the luminescence measured with an Envision plate reader per manufacture protocol. After 72 hours Cell Titer Glo 2.0 reagent was added to the plates and the luminescence measured. GR curves were calculated as follows: […]
# (§4) wherein x(c) is the Compound 1 treatment luminescence); x0 is the average Day 0 luminescence); and xctrl is the average DMSO treatment luminescence, and graphed using Graph Pad Prism. A GR value of 1 indicates no growth inhibition; GR values between 0 and 1 indicate partial growth inhibition; a GR value of 0 indicates cytostasis (no change from baseline); GR values less than 0 indicate cytotoxicity (cell number less than baseline); a GR value of −1 indicates complete cell loss.
# BR5015 xenografts = experiment: TNBC patient-derived xenograft BR5015, tumor volume; format: in vivo, mouse; details: 40 mg/kg or 30 mg/kg i.v. BIW
# Protocol: (§5) Patient-derived xenograft (PDX) models from TNBC patients (BR5010, BR5013, BR5015, and BR5023) were established in NOD-SCID mice at Crown Bioscience (San Diego, USA). Cryo vials containing tumor cells were thawed and prepared for injection into mice. Cells were washed in PBS, counted, and resuspended in cold PBS at a concentration of 50,000-100,000 viable cells/100 ul. Cell suspensions were mixed with an equal volume of Cultrex ECM and kept on ice during transport to the vivarium. Cells were prepared for injections by withdrawing ECM-Cell mixture into a chilled slip-tip syringe fitted with a 26G 7/8 (0.5 mm×22 mm) needle. The filled syringes were kept on ice to avoid the solidification of ECM. Each mouse was inoculated subcutaneously in the right flank with 200 uL of the cell suspension. Tumor sizes were measured in two dimensions using a caliper, and the volumes were expressed in mm^3 using the formula: V=0.5 a×b^2, where a and b are the longest and shortest diameters of the tumor, respectively. Compound 1 treatment was started when the average tumor size reached 150-200 mm^3.
# (§6) Compound 1 was formulated in w/v 20% Captisol (pH 4-6) and administered by i.v. twice weekly (BIW) at a final dose of 40 mg/kg or 30 mg/kg in a 10 ml/kg volume. Tumor volumes were measured twice weekly over the course of the study. […]
# [5] = tested on: MCL1 protein in KG1 cells; experiment: Western blot, AML cell line KG1; format: cell-based; details: 50 nM
# Protocol: as §1, §2
# MDA-MB-468 cells = experiment: Growth rate (GR) inhibition, Cell Titer Glo 2.0, MDA-MB-468; format: cell-based, human; details: concentrations greater than 100 nM, 72 hours
# Protocol: as §3, §4
# BR5013 xenografts = experiment: TNBC patient-derived xenograft BR5013, tumor volume; format: in vivo, mouse; details: 40 mg/kg or 30 mg/kg i.v. BIW
# Protocol: as §5, §6
smiles,measurement,setting,value
"CN(C)C/C=C/C(=O)Nc1ccc(C(=O)N[C@@]2(C)CCC[C@@H](Nc3ncc(Cl)c(-c4c[nH]c5ccccc45)n3)C2)nc1 [Compound 1, N-((1S,3R)-3-(5-chloro-4-(1H-indol-3-yl)pyrimidin-2-ylamino)-1-methylcyclohexyl)-5-((E)-4-(dimethylamino)but-2-enamido)picolinamide]","mRNA expression from genes involved in DNA repair (Rad51, CHEK1, CHEK2)",[1],Downregulation
same,"mRNA expression from genes involved in DNA repair (Rad51, CHEK1, CHEK2)",[2],Downregulation
same,Induction of apoptosis in vitro,leukemic cells,selectively induce apoptosis in leukemic cells relative to non-malignant cells
same,MCL1 protein level (Western blot),[3],significant reduction in MCL1
same,MCL1 protein level (Western blot),[4],significant reduction in MCL1
same,Inhibition of growth (GR curve),HCC70 cells,almost complete inhibition of growth
same,Tumor growth vs untreated historical samples,BR5015 xenografts,little inhibitory effect on tumor growth
same,MCL1 protein level (Western blot),[5],significant reduction in MCL1
same,Inhibition of growth (GR curve),MDA-MB-468 cells,almost complete inhibition of growth
same,Tumor growth vs untreated historical samples,BR5013 xenografts,little inhibitory effect on tumor growth
